Measurements from ChEMBL document CHEMBL4052761, “20(R)-Ginsenoside Rg3 protects SH-SY5Y cells against apoptosis induced by oxygen and glucose deprivation/reperfusion” (2017).
Active and inactive are the calls of the source. The rule behind the calls is not given here.

Tests used:
SH-SY5Y [1] = experiment: Cytoprotection against oxygen-glucose deprivation/reperfusion-induced cell death in human SH-SY5Y cells assessed as decrease in cleaved caspase-3 level at 100 umol/L pretreated for 24 hrs followed by oxygen-glucose deprivation for 10 hrs and reperfusion for 24 hrs by Western blot analysis; assay type: functional, cell-based
SH-SY5Y [2] = experiment: Cytoprotection against oxygen-glucose deprivation/reperfusion-induced cell death in human SH-SY5Y cells assessed as increase in Bcl2 m-RNA expression at 100 umol/L pretreated for 24 hrs followed by oxygen-glucose deprivation for 10 hrs and reperfusion for 24 hrs by RT-qPCR analysis; assay type: functional, cell-based
SH-SY5Y [3] = experiment: Cytoprotection against oxygen-glucose deprivation/reperfusion-induced cell death in human SH-SY5Y cells assessed as decrease in Bax m-RNA expression at 100 umol/L pretreated for 24 hrs followed by oxygen-glucose deprivation for 10 hrs and reperfusion for 24 hrs by RT-qPCR analysis; assay type: functional, cell-based
SH-SY5Y [4] = experiment: Cytoprotection against oxygen-glucose deprivation/reperfusion-induced cell death in human SH-SY5Y cells assessed as increase in cell viability at 100 umol/L pretreated for 24 hrs followed by oxygen-glucose deprivation for 10 hrs and reperfusion for 24 hrs by MTT assay; assay type: functional, cell-based
SH-SY5Y [5] = experiment: Cytoprotection against oxygen-glucose deprivation/reperfusion-induced cell death in human SH-SY5Y cells assessed as reduction in LDH leakage at 100 umol/L pretreated for 24 hrs followed by oxygen-glucose deprivation for 10 hrs and reperfusion for 24 hrs; assay type: functional, cell-based
SH-SY5Y [6] = experiment: Cytoprotection against oxygen-glucose deprivation/reperfusion-induced cell death in human SH-SY5Y cells assessed as decrease in cleaved caspase-3 level at 25 to 125 umol/L pretreated for 24 hrs followed by oxygen-glucose deprivation for 10 hrs and reperfusion for 24 hrs by Western blot analysis; assay type: functional, cell-based
SH-SY5Y [7] = experiment: (§1) Cytoprotection against oxygen-glucose deprivation/reperfusion-induced cell death in human SH-SY5Y cells assessed as early apoptotic cells at 125 umol/L pretreated for 24 hrs followed by oxygen-glucose deprivation for 10 hrs and reperfusion for 24 hrs by annexin V-FITC-propidium iodide staining-based flow cytometry method (reference value: 24.0%); assay type: functional
SH-SY5Y [8] = experiment: as §1, with “viable” for “early apoptotic”, “5” for “125”, “63.2%)” for “24.0%)”; assay type: functional; settings: read-out: Activity
SH-SY5Y [9] = experiment: as §1, with “late” for “early”, “25” for “125”, “10.5%)” for “24.0%)”; assay type: functional
SH-SY5Y [10] = experiment: Cytoprotection against oxygen-glucose deprivation/reperfusion-induced cell death in human SH-SY5Y cells assessed as decrease in Bax protein level at 5 to 125 umol/L pretreated for 24 hrs followed by oxygen-glucose deprivation for 10 hrs and reperfusion for 24 hrs by Western blot analysis; assay type: functional, cell-based
SH-SY5Y [11] = experiment: as §1, with “viable” for “early apoptotic”, “63.2%)” for “24.0%)”; assay type: functional; settings: read-out: Activity
SH-SY5Y [12] = experiment: as §1, with “late” for “early”, “10.5%)” for “24.0%)”; assay type: functional
SH-SY5Y [13] = experiment: as §1, with “cells” for “cells at 125 umol/L”; assay type: functional
SH-SY5Y [14] = experiment: Cytoprotection against oxygen-glucose deprivation/reperfusion-induced cell death in human SH-SY5Y cells assessed as increase in cell viability at 25 to 125 umol/L pretreated for 24 hrs followed by oxygen-glucose deprivation for 10 hrs and reperfusion for 24 hrs by MTT assay; assay type: functional, cell-based
SH-SY5Y [15] = experiment: Cytoprotection against oxygen-glucose deprivation/reperfusion-induced cell death in human SH-SY5Y cells assessed as increase in Bcl-2 protein level at 5 to 125 umol/L pretreated for 24 hrs followed by oxygen-glucose deprivation for 10 hrs and reperfusion for 24 hrs by Western blot analysis; assay type: functional, cell-based
SH-SY5Y [16] = experiment: as §1, with “necrotic” for “early apoptotic”, “5” for “125”, “2.3%)” for “24.0%)”; assay type: functional
SH-SY5Y [17] = experiment: as §1, with “late” for “early”, “5” for “125”, “10.5%)” for “24.0%)”; assay type: functional
SH-SY5Y [18] = experiment: Cytoprotection against oxygen-glucose deprivation/reperfusion-induced cell death in human SH-SY5Y cells assessed as reduction in LDH leakage at 25 to 125 umol/L pretreated for 24 hrs followed by oxygen-glucose deprivation for 10 hrs and reperfusion for 24 hrs; assay type: functional, cell-based
SH-SY5Y [19] = experiment: as §1, with “necrotic” for “early apoptotic”, “1” for “125”, “2.3%)” for “24.0%)”; assay type: functional
SH-SY5Y [20] = experiment: as §1, with “1” for “125”; assay type: functional
SH-SY5Y [21] = experiment: as §1, with “late” for “early”, “cells” for “cells at 125 umol/L”, “10.5%)” for “24.0%)”; assay type: functional
SH-SY5Y [22] = experiment: Cytoprotection against oxygen-glucose deprivation/reperfusion-induced cell death in human SH-SY5Y cells assessed as decrease in Bax m-RNA expression pretreated for 24 hrs followed by oxygen-glucose deprivation for 10 hrs and reperfusion for 24 hrs by RT-qPCR analysis; assay type: functional, cell-based
SH-SY5Y [23] = experiment: Cytoprotection against oxygen-glucose deprivation/reperfusion-induced cell death in human SH-SY5Y cells assessed as reduction in LDH leakage at 1 to 5 umol/L pretreated for 24 hrs followed by oxygen-glucose deprivation for 10 hrs and reperfusion for 24 hrs; assay type: functional, cell-based
SH-SY5Y [24] = experiment: Cytoprotection against oxygen-glucose deprivation/reperfusion-induced cell death in human SH-SY5Y cells assessed as decrease in Bax m-RNA expression at 125 umol/L pretreated for 24 hrs followed by oxygen-glucose deprivation for 10 hrs and reperfusion for 24 hrs by RT-qPCR analysis; assay type: functional, cell-based
SH-SY5Y [25] = experiment: Cytoprotection against oxygen-glucose deprivation/reperfusion-induced cell death in human SH-SY5Y cells assessed as increase in Bcl2 m-RNA expression at 125 umol/L pretreated for 24 hrs followed by oxygen-glucose deprivation for 10 hrs and reperfusion for 24 hrs by RT-qPCR analysis; assay type: functional, cell-based
SH-SY5Y [26] = experiment: as §1, with “25” for “125”; assay type: functional
SH-SY5Y [27] = experiment: as §1, with “5” for “125”; assay type: functional
SH-SY5Y [28] = experiment: as §1, with “viable” for “early apoptotic”, “1” for “125”, “63.2%)” for “24.0%)”; assay type: functional; settings: read-out: Activity
SH-SY5Y [29] = experiment: as §1, with “viable” for “early apoptotic”, “25” for “125”, “63.2%)” for “24.0%)”; assay type: functional; settings: read-out: Activity
SH-SY5Y [30] = experiment: as §1, with “necrotic” for “early apoptotic”, “25” for “125”, “2.3%)” for “24.0%)”; assay type: functional
SH-SY5Y [31] = experiment: as §1, with “late” for “early”, “1” for “125”, “10.5%)” for “24.0%)”; assay type: functional
SH-SY5Y [32] = experiment: as §1, with “viable” for “early apoptotic”, “cells” for “cells at 125 umol/L”, “63.2%)” for “24.0%)”; assay type: functional
SH-SY5Y [33] = experiment: as §1, with “necrotic” for “early apoptotic”, “cells” for “cells at 125 umol/L”, “2.3%)” for “24.0%)”; assay type: functional
SH-SY5Y [34] = experiment: Cytoprotection against oxygen-glucose deprivation/reperfusion-induced cell death in human SH-SY5Y cells assessed as increase in Bcl2 m-RNA expression pretreated for 24 hrs followed by oxygen-glucose deprivation for 10 hrs and reperfusion for 24 hrs by RT-qPCR analysis; assay type: functional, cell-based
SH-SY5Y [35] = experiment: as §1, with “necrotic” for “early apoptotic”, “2.3%)” for “24.0%)”; assay type: functional

SMILES: COCCOC(=O)C1=C(C)NC(C)=C(C(=O)OC(C)C)C1c1cccc([N+](=O)[O-])c1 (stereo not given)
- Activity (SH-SY5Y [1]): Active
- Activity (SH-SY5Y [2]): Active
- Activity (SH-SY5Y [3]): Active
- Activity (SH-SY5Y [4]): Active
- Activity (SH-SY5Y [5]): Active

SMILES: CC(C)=CCC[C@](C)(O)[C@H]1CC[C@]2(C)[C@@H]1[C@H](O)C[C@@H]1[C@@]3(C)CC[C@H](O[C@@H]4O[C@H](CO)[C@@H](O)[C@H](O)[C@H]4O[C@@H]4O[C@H](CO)[C@@H](O)[C@H](O)[C@H]4O)C(C)(C)[C@@H]3CC[C@]12C
- Activity (SH-SY5Y [6]): Active
- Activity (SH-SY5Y [7]): 5%
- viability at 5 µM (SH-SY5Y [8]): 70%
- Activity (SH-SY5Y [9]): 5.7%
- Activity (SH-SY5Y [10]): Active
- viability at 125 µM (SH-SY5Y [11]): 80.4%
- Activity (SH-SY5Y [12]): 4.8%
- Activity (SH-SY5Y [13]): 8%
- Activity (SH-SY5Y [14]): Active
- Activity (SH-SY5Y [15]): Active
- Activity (SH-SY5Y [16]): 5.8%
- Activity (SH-SY5Y [17]): 11.3%
- Activity (SH-SY5Y [18]): Active
- Activity (SH-SY5Y [19]): 2.7%
- Activity (SH-SY5Y [20]): 17%
- Activity (SH-SY5Y [21]): 2.8%
- Activity (SH-SY5Y [22]): Dose-dependent effect
- Activity (SH-SY5Y [23]): inactive
- Activity (SH-SY5Y [24]): Active
- Activity (SH-SY5Y [25]): Active
- Activity (SH-SY5Y [26]): 7.9%
- Activity (SH-SY5Y [27]): 13%
- viability at 1 µM (SH-SY5Y [28]): 69.9%
- viability at 25 µM (SH-SY5Y [29]): 77.5%
- Activity (SH-SY5Y [30]): 8.9%
- Activity (SH-SY5Y [31]): 10.3%
- Activity (SH-SY5Y [32]): 80.4%
- Activity (SH-SY5Y [33]): 8.9%
- Activity (SH-SY5Y [34]): Dose-dependent effect
- Activity (SH-SY5Y [35]): 9.8%
